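The compound was tested at five concentrations on cells cultured in 96-well plates, with a 48-hour exposure period. GI50 marks 50% less growth. At the TGI there is no net growth.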
Legend:
Experiment in all cases: NCI anticancer screen, dose series, 48 h
EKVX NSCLC = system: EKVX NSCLC
A549 NSCLC = system: A549 NSCLC
UO-31 renal = system: UO-31 renal
SK-MEL-5 melanoma = system: SK-MEL-5 melanoma
CCRF-CEM leukemia = system: CCRF-CEM leukemia
SW-620 colon = system: SW-620 colon
NCI-H522 lung = system: NCI-H522 lung
NCI-H460 lung = system: NCI-H460 lung
HCT-15 colon = system: HCT-15 colon
SF-295 CNS = system: SF-295 CNS

Structure (SMILES)	GI50 (EKVX NSCLC) [µM]	TGI (EKVX NSCLC) [µM]	GI50 (A549 NSCLC) [µM]	TGI (A549 NSCLC) [µM]	GI50 (UO-31 renal) [µM]	TGI (UO-31 renal) [µM]	GI50 (SK-MEL-5 melanoma) [µM]	TGI (SK-MEL-5 melanoma) [µM]	GI50 (CCRF-CEM leukemia) [µM]	TGI (CCRF-CEM leukemia) [µM]	GI50 (SW-620 colon) [µM]	TGI (SW-620 colon) [µM]	GI50 (NCI-H522 lung) [µM]	TGI (NCI-H522 lung) [µM]	GI50 (NCI-H460 lung) [µM]	TGI (NCI-H460 lung) [µM]	GI50 (HCT-15 colon) [µM]	TGI (HCT-15 colon) [µM]	GI50 (SF-295 CNS) [µM]	TGI (SF-295 CNS) [µM]
N=C(N)c1ccc(-c2ccc(-c3ccccc3)s2)cc1	2.65	11.4	2.14	4.73	1.48	2.81	1.77	3.19	1.97	4.57	–	–	–	–	–	–	–	–	–	–
O=[N+]([O-])c1ccccc1NC1c2ccccc2Oc2ccccc21	17.2	> 100	6.51	> 100	7.46	> 100	3.44	> 100	4.44	> 100	3.55	> 100	3.84	> 100	3.87	> 100	3.5	> 100	4.45	> 100
C=C1C(=O)OC2/C=C(/C)C3CC(O)C(C)(CC(OC(=O)/C(C)=C/C)C12)O3 (stereo not given)	–	14.5	–	23.6	–	18.3	–	16.2	–	8.1	–	3.46	–	6.12	–	18.3	–	3.61	–	> 54
O=C1C=CC2=[N+]([O-])C(c3ccccc3)(c3ccccc3)C(=Nc3ccccc3)C2=C1	–	14.1	–	29.4	–	5.33	–	27.2	–	2.18	–	3.65	–	3.02	–	34.4	–	6.34	–	27.7
COc1cc(/C=C/c2cc(/C=C/c3ccc(O)c(OC)c3)nc(N)n2)ccc1O	2.22	6.83	2.22	6.04	2.09	7.58	1.49	2.89	–	–	–	–	1.24	2.79	2.05	5.2	2.82	10.3	1.93	4.54
CCNc1nnc(-c2nsc3ccccc23)s1	–	> 100	–	> 100	–	> 100	–	> 100	–	> 100	–	> 100	–	–	–	88.6	–	> 100	–	–
Cc1ccc([N+](=O)[O-])cc1S(=O)(=O)Nc1ccc(C2=NNC(c3ccccc3O)C2)cc1 (stereo not given)	–	56.9	–	> 100	–	79.2	–	58.6	–	> 100	–	> 100	–	> 100	–	80.6	–	97.6	–	90.9
CN1CCCCC(C#N)(c2ccccc2)CC1 (stereo not given)	–	> 100	–	> 100	–	> 100	–	> 100	–	> 100	–	> 100	–	–	–	> 100	–	> 100	–	> 100
C=C1C(=O)C[C@@]23CCC[C@@]12CC(OCOC)C3 (stereo not given in full)	–	16.7	–	28.4	–	13.3	–	13.3	–	6.81	–	3.97	–	0.675	–	13.2	–	3.08	–	17.3
Nc1nc(Cl)cc(OCC2(CO)CC(OCc3ccccc3)C2)n1 (stereo not given)	44.6	–	43	–	40.1	–	23.9	–	41.6	–	–	–	47.2	–	66.3	–	83.8	–	50.1	–
CC(C)CCC[C@@H](C)C1CCC2[C@@H]3CC=C4C[C@@H](C(=O)NCC[N+](C)(C)CCCS(=O)(=O)[O-])CC[C@]4(C)C3CC[C@@]21C (stereo not given in full)	–	31	–	31.7	–	34.3	–	41.4	–	31.5	–	30.7	–	23.6	–	30.6	–	30.9	–	35
COC(=O)c1cccc(N[C@@H]2c3cc4c(cc3C(c3cc(OC)c(O)c(OC)c3)[C@H]3C(=O)OCC32)OCO4)c1 (stereo not given in full)	–	> 26.6	–	3.25	–	11.7	–	3.02	–	5.23	–	> 100	–	8.75	–	2.24	–	4.54	–	5.96
CC(=O)Oc1ccc2c(c1)oc1c3ccc(OC(C)=O)cc3n(C)c(=O)c21	–	70.8	–	> 100	–	> 100	–	16.7	–	> 100	–	> 100	–	–	–	> 100	–	> 100	–	> 100
CCN(CC)CCCNc1ncc(C)c2[nH]c3ccncc3c12	–	63.3	–	22.7	–	> 100	–	28.1	–	> 71.5	–	36.9	–	22.8	–	15.6	–	> 100	–	29.7
Cc1cc(C)c2c(c1)CC1(Cc3c(C)ccc(C)c3C1=O)C2=O (stereo not given)	–	> 100	–	> 100	–	–	–	> 100	–	> 100	–	> 100	–	> 100	–	> 100	–	> 100	–	> 100
S=P1(N2CCCCC2)Oc2ccc3ccccc3c2-c2c(ccc3ccccc23)O1	–	> 100	–	> 100	–	> 100	–	> 100	–	> 31.6	–	> 100	–	> 100	–	> 91.6	–	> 100	–	> 100
